Laboratory results reported in US20100255004A1, “RECEPTOR TYROSINE KINASE PROFILING” (Dana Farber Cancer Institute, priority 2007, published 2010).
Where a name gives a salt, the structure may show the parent alone.

Assays:
MET [1] = biological target: T1, MET (Homo sapiens, UniProt P08581); assay: Immunoblot of P-MET in LN382 and LN18 cells; type: cell-based; design: endogenous in cells; host or cells: LN382 and LN18 glioma cells; conditions: 1 μM, 24 hours (FIG. 4F)
Procedure: A-E. The glioma cell lines LN18 (wt PTEN), SF767 (wt PTEN), LN382 (mut PTEN) and LNZ308 (mut PTEN) were incubated in 0.05% serum-containing medium cells and treated with 10 μM erlotinib (E or T), 10 μM SU11274 (S), and/or 10 μM imatinib (I or G) and immunoblotted as in FIG. 3. […] LN382 and LN18 cells were treated with 1 μM each RTK inhibitor for 24 hours, then immunoblotted with antibodies to P-PDGFRβ and P-MET.

[2] = tested on: PI3K signaling (p85α/GAB1 complex, P-AKT, P-S6); assay: GAB1 immunoprecipitation and immunoblots of P-AKT and P-S6 in U87MG-EGFR* cells; type: cell-based, human; conditions: U87MG-EGFR* cells (PTEN mutant), 10 μM each inhibitor (FIG. 3C)
Procedure: U87MG parental cells or cells constitutively expressing wt EGFR, the activating vIII deletion mutant (EGFR*) or the vIII mutant with an inactivating mutation in its kinase domain (EGFR*-KD) were immunoprecipitated with an antibody to the RTK/PI-3K adaptor protein, GAB1 (left panel), then immunoblots were probed with the indicated antibodies. […] Whole cell extracts (WCE) from the same cells were immunoblotted with the indicated antibodies. […] C. […] Bottom panel: Un-immunoprecipitated whole cell extracts were immunoblotted with the indicated antibodies. […] Error bars indicate SEM, n=4. […] U87MG-EGFR* cells were transfected with empty vector, HRASV12, myristoylated-AKT, or p110α-CAAX, then treated with 10 μM each of erlotinib (E), SU11274 (S), and imatinib (I) in 0.05% serum-containing medium for 72 hours prior to assaying cell viability.
We also immunoblotted whole cell extracts with antibodies against MAPK and phosphorylated versions of AKT, MAPK, and S6 (FIG. 3C, bottom panel):
Following 30 min incubation in lysis buffer at 4° C., lysates were cleared by centrifugation at 10 k 10 min 4° C., then protein concentrations were determined by BioRad DC Protein Assay. […] Co-immunoprecipitated proteins were detected with either mouse or rabbit TrueBlot HRP conjugated secondaries (eBioscience). • Antibody arrays.

MET [3] = biological target: T1, MET; assay: RTK antibody array, phosphorylation of MET in U87MG-EGFR* cells; type: cell-based; design: endogenous in cells; conditions: 10 μM, RTK antibody array (FIG. 3B)
Procedure: Error bars indicate SEM, n=4.
Following 30 min incubation in lysis buffer at 4° C., lysates were cleared by centrifugation at 10 k 10 min 4° C., then protein concentrations were determined by BioRad DC Protein Assay. […] Tyrosine-phosphorylated proteins were visualized by separation on NuPAGE 3-8% Tris-Acetate gels (Invitrogen), blotted onto nitrocellulose, blocked with 3% Immunoblot Blocking Reagent (Upstate), then incubated with anti-phosphotyrosine antibody (4G10, Upstate). […] Co-immunoprecipitated proteins were detected with either mouse or rabbit TrueBlot HRP conjugated secondaries (eBioscience). • Antibody arrays. Cells were harvested as for immunoprecipitations above. Snap-frozen tumors were thawed in immunoprecipitation lysis buffer, homogenized by hand 50× with disposable 1.5 mL pestles, incubated 30 min 4° C. with inversion, homogenized 50×, then cleared by centrifugation at 10 k 10 min 4° C. Proteins were quantitated as above. RTK antibody arrays were purchased from R&D Systems (#ARY-001) and performed as recommended but with 2 mg protein lysate per array. • Soft agar colony formation.

PDGFRβ = biological target: T2, PDGFRβ (Homo sapiens, UniProt P09619); assay: Immunoblot of P-PDGFRβ in LN382 and LN18 cells; type: cell-based; conditions: 1 μM, 24 hours (FIG. 4F)
T2 construct: endogenous in cells; host or cells: LN382 and LN18 glioma cells
Source text: DNA is labeled with Hoechst 33342.

PDGFR = assay: p-PDGFR in LNZ308 cells; type: cell-based, human
Source text: We then correlated inhibition of PI3K activity with biological effects of various combinations of RTK inhibitor treatment regimens. […] Second, we are mindful of the limitation of detection sensitivity by current antibody array technology and that a particular RTK may not be represented or be activated at an undetectable but biologically-relevant level. As shown in FIG. 4C-E, combination inhibition of RTKs in LN382 and LNZ308, both PTEN mutant GBM lines, effectively extinguished PI3K activity.

T1 sequence (P08581 25-1390): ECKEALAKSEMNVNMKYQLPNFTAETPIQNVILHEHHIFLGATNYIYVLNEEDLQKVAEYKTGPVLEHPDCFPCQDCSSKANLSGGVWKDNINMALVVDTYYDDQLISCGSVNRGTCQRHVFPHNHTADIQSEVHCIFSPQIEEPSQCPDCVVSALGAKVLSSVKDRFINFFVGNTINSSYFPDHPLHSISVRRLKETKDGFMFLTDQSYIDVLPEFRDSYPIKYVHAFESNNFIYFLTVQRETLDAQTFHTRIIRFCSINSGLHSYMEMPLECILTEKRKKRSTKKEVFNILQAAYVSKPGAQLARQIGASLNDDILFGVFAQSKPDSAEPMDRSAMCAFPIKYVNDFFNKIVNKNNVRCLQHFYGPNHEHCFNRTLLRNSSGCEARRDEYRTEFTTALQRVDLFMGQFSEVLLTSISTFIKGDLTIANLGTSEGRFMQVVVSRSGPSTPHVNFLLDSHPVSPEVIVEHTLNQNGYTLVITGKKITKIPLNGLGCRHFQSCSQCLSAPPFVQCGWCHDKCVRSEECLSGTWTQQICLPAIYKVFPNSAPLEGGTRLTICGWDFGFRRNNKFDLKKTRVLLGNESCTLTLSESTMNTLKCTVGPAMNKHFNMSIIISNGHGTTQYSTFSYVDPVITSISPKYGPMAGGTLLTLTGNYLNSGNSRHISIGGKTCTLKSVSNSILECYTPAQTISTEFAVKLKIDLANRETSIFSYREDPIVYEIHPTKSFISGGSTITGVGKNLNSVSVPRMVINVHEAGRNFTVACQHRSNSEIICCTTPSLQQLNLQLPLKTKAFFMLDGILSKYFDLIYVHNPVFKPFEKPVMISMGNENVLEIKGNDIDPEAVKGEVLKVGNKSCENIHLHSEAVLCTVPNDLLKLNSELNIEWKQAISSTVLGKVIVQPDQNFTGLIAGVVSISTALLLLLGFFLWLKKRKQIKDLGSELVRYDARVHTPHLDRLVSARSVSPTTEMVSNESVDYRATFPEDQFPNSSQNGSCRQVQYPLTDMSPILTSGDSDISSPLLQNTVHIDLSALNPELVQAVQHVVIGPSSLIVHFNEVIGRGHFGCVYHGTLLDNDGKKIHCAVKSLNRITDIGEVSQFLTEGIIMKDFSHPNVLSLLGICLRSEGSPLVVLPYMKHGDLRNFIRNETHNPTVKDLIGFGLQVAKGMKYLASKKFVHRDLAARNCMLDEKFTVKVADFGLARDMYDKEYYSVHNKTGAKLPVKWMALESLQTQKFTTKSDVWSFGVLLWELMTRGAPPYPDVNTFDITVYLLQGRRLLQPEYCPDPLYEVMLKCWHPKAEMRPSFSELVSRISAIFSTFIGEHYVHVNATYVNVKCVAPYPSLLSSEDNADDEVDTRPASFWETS
T2 sequence (P09619 33-1106): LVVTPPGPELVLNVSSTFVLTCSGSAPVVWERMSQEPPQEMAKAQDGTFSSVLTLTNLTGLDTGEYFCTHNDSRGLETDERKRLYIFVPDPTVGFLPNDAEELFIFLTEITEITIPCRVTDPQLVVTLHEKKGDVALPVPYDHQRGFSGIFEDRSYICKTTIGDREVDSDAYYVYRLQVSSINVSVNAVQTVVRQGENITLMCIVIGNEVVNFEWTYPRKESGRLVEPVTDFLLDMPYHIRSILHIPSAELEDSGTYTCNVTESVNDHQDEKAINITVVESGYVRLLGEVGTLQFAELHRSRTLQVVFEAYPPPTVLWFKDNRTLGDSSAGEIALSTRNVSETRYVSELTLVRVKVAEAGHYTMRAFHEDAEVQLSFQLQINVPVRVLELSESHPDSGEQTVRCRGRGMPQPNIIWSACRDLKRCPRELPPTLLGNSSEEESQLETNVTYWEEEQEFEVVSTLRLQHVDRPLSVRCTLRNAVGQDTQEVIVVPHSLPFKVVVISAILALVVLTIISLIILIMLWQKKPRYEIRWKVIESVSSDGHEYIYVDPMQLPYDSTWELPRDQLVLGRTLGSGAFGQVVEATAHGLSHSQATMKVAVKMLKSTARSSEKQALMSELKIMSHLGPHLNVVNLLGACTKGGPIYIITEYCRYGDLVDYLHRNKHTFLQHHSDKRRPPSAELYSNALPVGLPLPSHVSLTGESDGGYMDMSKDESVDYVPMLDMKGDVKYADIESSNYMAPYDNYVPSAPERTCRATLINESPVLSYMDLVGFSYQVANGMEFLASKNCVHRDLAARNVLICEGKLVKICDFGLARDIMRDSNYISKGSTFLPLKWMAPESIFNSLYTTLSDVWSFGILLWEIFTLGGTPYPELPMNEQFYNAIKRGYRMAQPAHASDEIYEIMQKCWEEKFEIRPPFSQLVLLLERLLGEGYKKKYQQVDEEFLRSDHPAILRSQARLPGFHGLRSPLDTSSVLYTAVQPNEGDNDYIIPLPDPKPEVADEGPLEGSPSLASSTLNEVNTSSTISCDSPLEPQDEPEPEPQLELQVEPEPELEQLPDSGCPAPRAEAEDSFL

| SMILES | phosphorylation of MET (MET [1]) | PI3K association with GAB1 and downstream activation of AKT and S6 [2] | phosphorylation of intended target RTK (P-MET) (MET [3]) | P-PDGFRβ (PDGFRβ) | p-PDGFR (PDGFR) |
| --- | --- | --- | --- | --- | --- |
| Cc1ccc(NC(=O)c2ccc(CN3CCN(C)CC3)cc2)cc1Nc1nccc(-c2cccnc2)n1 [Gleevec™, Imatinib mesylate] | decrease in phosphorylation of MET | did not significantly effect PI3K activation | – | – | – |
| Cc1[nH]c(/C=C2\C(=O)Nc3ccc(S(=O)(=O)N(C)c4cccc(Cl)c4)cc32)c(C)c1C(=O)N1CCN(C)CC1 [SU11274] | – | no discernable effect | effectively blocked phosphorylation | decrease in P-PDGFRβ | diminishes p-PDGFR |
